In ChEMBL document CHEMBL1201862, “PubChem BioAssay data set” (2004):
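Assay format: 96-well plates, 48-hour exposure. GI50 marks 50% less growth.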 Activity calls are given as the source filed them. No stated cut-off is given here; in the data, active = GI50 up to about 1.1 µM and inactive = higher.

Assays:
Assay in all cases: inhibition of tumour cell growth, NCI panel, 48 h
786-0 = tested on: 786-0
A498 = tested on: A498
A549 = tested on: A549
ACHN = tested on: ACHN
CAKI-1 = tested on: CAKI-1
CCRF-CEM = tested on: CCRF-CEM
COLO 205 = tested on: COLO 205
DU-145 = tested on: DU-145
EKVX = tested on: EKVX
HCC 2998 = tested on: HCC 2998
HCT-116 = tested on: HCT-116
HCT-15 = tested on: HCT-15
HL-60 = tested on: HL-60
HOP-62 = tested on: HOP-62
HT-29 = tested on: HT-29
Hs-578T = tested on: Hs-578T
IGROV-1 = tested on: IGROV-1
K562 = tested on: K562
KM12 = tested on: KM12
LOX IMVI = tested on: LOX IMVI
M14 = tested on: M14
MCF7 = tested on: MCF7
MDA-MB-231 = tested on: MDA-MB-231
MDA-MB-435 = tested on: MDA-MB-435
MDA-N = tested on: MDA-N
MOLT-4 = tested on: MOLT-4
Malme-3M = tested on: Malme-3M
NCI-H226 = tested on: NCI-H226
NCI-H23 = tested on: NCI-H23
NCI-H460 = tested on: NCI-H460
NCI-H522 = tested on: NCI-H522
NCI/ADR-RES = tested on: NCI/ADR-RES
OVCAR-3 = tested on: OVCAR-3
OVCAR-4 = tested on: OVCAR-4
OVCAR-5 = tested on: OVCAR-5
OVCAR-8 = tested on: OVCAR-8
PC-3 = tested on: PC-3
RPMI-8226 = tested on: RPMI-8226
RXF 393 = tested on: RXF 393
SF-268 = tested on: SF-268
SF-295 = tested on: SF-295
SF-539 = tested on: SF-539
SK-MEL-28 = tested on: SK-MEL-28
SK-MEL-2 = tested on: SK-MEL-2
SK-MEL-5 = tested on: SK-MEL-5
SK-OV-3 = tested on: SK-OV-3
SN12C = tested on: SN12C
SNB-19 = tested on: SNB-19
SNB-75 = tested on: SNB-75
SR = tested on: SR
SW-620 = tested on: SW-620
T47D = tested on: T47D
TK-10 = tested on: TK-10
U-251 = tested on: U-251
UACC-257 = tested on: UACC-257
UACC-62 = tested on: UACC-62
UO-31 = tested on: UO-31

SMILES: CCOC(=O)C(C#N)C1=CC(=O)C(=O)c2ccc(OC)cc21 (configuration not stated)
- GI50 (786-0): 25.1 µM (inactive)
- GI50 (A498): 21.8 µM (inactive)
- GI50 (A549): 19.7 µM (inactive)
- GI50 (ACHN): 15.3 µM (inactive)
- GI50 (CAKI-1): 29 µM (inactive)
- GI50 (CCRF-CEM): 43.3 µM (inactive)
- GI50 (COLO 205): 17 µM (inactive)
- GI50 (DU-145): 19.5 µM (inactive)
- GI50 (EKVX): 22.7 µM (inactive)
- GI50 (HCC 2998): 16.2 µM (inactive)
- GI50 (HCT-116): 20.7 µM (inactive)
- GI50 (HCT-15): 23.8 µM
- GI50 (HL-60): 38.3 µM (inactive)
- GI50 (HOP-62): 22 µM (inactive)
- GI50 (HT-29): 31.6 µM (inactive)
- GI50 (Hs-578T): 18.1 µM (inactive)
- GI50 (IGROV-1): 19.9 µM (inactive)
- GI50 (K562): 36.6 µM (inactive)
- GI50 (KM12): 20 µM (inactive)
- GI50 (LOX IMVI): 21.1 µM (inactive)
- GI50 (M14): 15.6 µM (inactive)
- GI50 (MCF7): 16.1 µM (inactive)
- GI50 (MDA-MB-231): 14.6 µM (inactive)
- GI50 (MDA-MB-435): 17.6 µM (inactive)
- GI50 (MDA-N): 5.83 µM (inactive)
- GI50 (MOLT-4): 48.5 µM (inactive)
- GI50 (Malme-3M): 16.9 µM (inactive)
- GI50 (NCI-H226): 21.6 µM (inactive)
- GI50 (NCI-H23): 15.5 µM (inactive)
- GI50 (NCI-H460): 24.2 µM (inactive)
- GI50 (NCI-H522): 3.89 µM (inactive)
- GI50 (NCI/ADR-RES): 20.1 µM (inactive)
- GI50 (OVCAR-3): 17.9 µM (inactive)
- GI50 (OVCAR-4): 19 µM (inactive)
- GI50 (OVCAR-5): 20.1 µM (inactive)
- GI50 (OVCAR-8): 20 µM (inactive)
- GI50 (PC-3): 28.5 µM (inactive)
- GI50 (RPMI-8226): > 100 µM (inactive)
- GI50 (RXF 393): 21.8 µM (inactive)
- GI50 (SF-268): 30.2 µM (inactive)
- GI50 (SF-295): 23.3 µM (inactive)
- GI50 (SF-539): 18.4 µM (inactive)
- GI50 (SK-MEL-28): 21.3 µM (inactive)
- GI50 (SK-MEL-2): 12.8 µM (inactive)
- GI50 (SK-MEL-5): 15.2 µM (inactive)
- GI50 (SK-OV-3): 18.4 µM (inactive)
- GI50 (SN12C): 18.6 µM (inactive)
- GI50 (SNB-19): 22.1 µM (inactive)
- GI50 (SNB-75): 20.8 µM (inactive)
- GI50 (SR): 57.1 µM (inactive)
- GI50 (SW-620): 18.4 µM (inactive)
- GI50 (T47D): 14.9 µM (inactive)
- GI50 (TK-10): 38.5 µM (inactive)
- GI50 (U-251): 29.2 µM (inactive)
- GI50 (UACC-257): 17 µM (inactive)
- GI50 (UACC-62): 15.2 µM (inactive)
- GI50 (UO-31): 17.5 µM (inactive)
